Measurements reported in patent US20110311484A1, “STRAINS OF […] LEUKEMIA-RELATED VIRUS AND METHODS FOR DETECTION THEREOF” (Whittemore Peterson Institute for Neuro-Immune Disease, priority 2010, published 2011).

System: XMRV
Assay: XMRV Env expression in PHA/IL-2 activated PBMC cultures, staining with SFFV env moAb
Format: cell-based
Conditions: PBMCs of XMRV-infected individuals, PHA/IL-2 activated for three days; inhibitor (50 nM AZT, FIG. 3) added prior to activation
Experimental: XMRV RNA could not always be detected in the PBMCs of subjects from which infectious virus had been isolated from plasma. […] We have observed that culturing these PBMCs under conditions that induce activation of T cells increases the frequency of XMRV detected by RT-PCR in the cells maintained in culture. […] To biologically increase the level of XMRV and increase the probability that XMRV sequences could be detected by PCR, PBMCs were cultured under conditions that activated T cells for 7-10 days, the RNA isolated, and nested RT-PCR analysis performed as described above.

SMILES: Cc1cn([C@H]2C[C@H](N=[N+]=[N-])[C@@H](CO)O2)c(=O)[nH]c1=O [reverse transcriptase inhibitor, zidovudine]
- XMRV expression, as measured by cell surface expression of Env: prevents the increase XMRV expression
